What was measured:
[1] = test system: Phytophthora infestans; format: cell-based; conditions: YPBG medium, 125 ppm, 18° C., seven days
[2] = test system: Septoria tritici; test: Fungicidal action on pathogens, growth in medium analyzed at 405 nm (Example 3); format: cell-based; conditions: 2% malt medium, 125 ppm, 18° C., seven days
Method: Various pathogens were tested under respective test mediums and concentrations of UV filters (see Table 2). The pathogens were incubated at a temperature of 18° C. for seven days. The growth of the pathogens was compared to an untreated sample. Table 2 lists the growth compared to the untreated sample, which corresponds to 100%. The growth was analyzed at 405 nm.

[3] = test system: Ramularia collo-cygni; test: Preventive action on winter barley against Ramularia collo-cygni, field trial (Example 2); format: in vivo; conditions: barley variety Malwinta, natural infection, application at BBCH 49, evaluated 12 days after application, 0 = as untreated, 100 = not infected, UV Filter A 500 g ai/ha, Actives A & B 240 & 297 g ai/ha
Method: As active substance a mixture of active substances was used called “Actives A & B”, which was prepared by mixing Active A and Active B. Active A was a fungicidal suspension concentrate comprising 6 wt % epoxiconazol, 20.8 wt % boscalid, 11.2-12.6 wt % fatty alcohol alkoxylate, C8-alkyl glucoside, and phenolsulfonic acid-formaldehyde-polycondensate sodium salt (commercially available pesticide formulation from BASF SE as Champion®). Active B a fungicidal suspoemulsion comprising 20.6 wt % fenpropimorph, 11 wt % pyraclostrobin, 4.1 wt % epoxiconazol, 20.5 wt % solvent naphtha, 11 wt % fatty alcohol ethoxylate and 4.8 wt % phenolsulfonic acid-formaldehyde-polycondensate sodium salt (commercially available pesticide formulation from BASF SE as Diamant®). UV Filter A was prepared as described in example 1.
The biological trial was conducted under field conditions. The barley variety Malwinta was planted and grown under standard conditions with adequate supply of water and nutrients. […] The disease incidences were evaluated 12 days after application.
The diseases were converted into efficacies. […] The expected efficacies of active compound mixtures were determined using Colby's formula [R. S. Colby, “Calculating synergistic and antagonistic responses of herbicide combinations”, Weeds 15, 20-22 (1967)] and compared with the observed efficacies.

In the case of `COCCOCCOCCOCCOCCOCCOCCOC(=O)C(C#N)=C(c1ccccc1)c1ccccc1` [UV Filter A, 2-Cyano-3,3-diphenyl-acrylsäure-[Pluriol A350E]-ester], the “Growth (%) relative to untreated sample” value [1] is reported as 78%, the “Growth (%) relative to untreated sample” value [2] is reported as 40% and the Efficacy [3] is reported as 0.

— patent publication US8748347B2 (priority 2009, dated 2014)
